# Patent US20040142899A1, “Compositions and methods for enhanced biostability and altered biodistribution of oligonucleotides in mammals” (ISIS Pharmaceuticals, Inc., priority 1990, published 2004)
# Values joined by “and” are separate entries in the source; they are usually repeats but may differ in a detail not shown here. Equal entries are not always repeated.
# Experiments:
# [1] = test system: E2 gene of bovine papilloma virus type 1 (BPV-1); assay: E2 transactivation assay (pE2RE-1-CAT) in I-38 cells; type: cell-based, bovine papilloma virus-1; conditions: I-38 cells transfected with pE2RE-1-CAT, harvested after 48 hours; lower = more inhibition; listed as positive control compound
# P-glycoprotein [2] = assay: Cell surface P-glycoprotein by immunofluorescent staining and flow cytometry in MDR 3T3 cells; type: cell-based, human; conditions: 1 μm administered with LIPOFECTIN, parallel experiment
# Procedure: MDR 3T3 cells were treated with various concentrations of oligonucleotides ISIS 11073 (5′-cholesterol 5995), or ISIS 12064 (5′-cholesterol 10221; scrambled control) for 48 hours in serum free medium. The cells were recovered and stained with an anti-P-glycoprotein monoclonal antibody directed against a surface epitope, followed by a phycoerythrin-conjugated second antibody. The level of cell surface fluorescence in viable cells was quantitated using a flow cytometer; light scatter parameters were set so as to exclude non-viable cells. […] The results represent means and standard errors for 6 determinations.
# Transfected MDR NIH 3T3 cells were grown and treated with oligonucleotides as described in Example (9)(B). MDR1 mRNA expression was measured by Northern blotting as described in Example (9)(C). In order to measure cell surface P-glycoprotein levels by flow cytometry, cells were seeded in 60 mm dishes at 1.2×10^6/plate in 5 ml of medium, grown for one day in 10% FBS/DMEM, and exposed to the oligomers in serum free medium. […] The level of R-PE fluorescence in viable cells (as determined by light scatter) was quantitated using the Cicero software application (Cytomation, Fort Collins, Co.) on a Becton Dickinson flow cytometer.
# MDR1 mRNA [3] = assay: MDR1 mRNA expression by Northern blotting in MDR 3T3 cells; type: cell-based, human; conditions: for MDR1 mRNA Level (arbitrary units) / % Control (MDR1 mRNA): oligonucleotide 1 μm, with Lipofectin; for MDR1 mRNA Level (arbitrary units): serum free medium; for % Control (MDR1 mRNA): control = untreated cells
# Procedure: NIH 3T3 cells transfected with a plasmid containing the human MDR1 gene (pSK1 MDR) have been previously described (Kane et al., Gene, 1989, 84, 439). These cells have proven to be useful models for the study of multi-drug resistance phenomena. Cells were grown in DMEM media containing 10% fetal bovine serum (FBS) and 60 ng/ml colchicine in an atmosphere of 95% air, 5% CO2.
# Cells were grown in […] flasks.
# To measure MDR1 mRNA expression by Northern blotting, total cellular RNA was isolated by lysis in 4M guanidium isothiocyanate followed by a cesium chloride gradient, and the RNA was resolved on 1.2% agarose gels containing 1.2% formaldehyde and transferred to nitrocellulose membranes (Dean et al., J. Biol. Chem., 1994, 269, 16416). The blots were hybridized with a ^32P radiolabeled human MDR1 cDNA probe. The MDR1 cDNA probe was isolated by performing a polymerase chain reaction on the pSK1 MDR plasmid, as described previously (Alahari et al., Nucl. Acids Res., 1993, 21, 4079). The following oligonucleotide primers were used for PCR: […]
# The resulting fragment was checked on an agarose gel and was radiolabeled with ^32P-dCTP using a commercially available random primer labeling kit (Amersham, Arlington Heights, Ill.) according to the manufacturer's instructions. The filters were hybridized overnight in hybridization buffer (25 mM KPO4, pH 7.4; 5×SSC; 5×Denhardt's solution, 100 ug/ml Salmon sperm DNA and 50% formamide) (Alahari et al., Nucl. Acids Res., 1993, 21, 4079). This was followed by two washes with 1×SSC, 0.1% SDS and two washes with 0.25×SSC, 0.1% SDS. Hybridizing bands were visualized by exposure to X-OMAT AR film and quantitated using a PhosphorImager™ (Molecular Dynamics, Sunnyvale, Calif.). To confirm equal loading of RNA, the blots were stripped and reprobed with a ^32P-labeled beta-actin probe (Clontech, Palo Alto, Calif).
# In initial experiments, the MDR 3T3 cells were exposed to 1.0 μm concentrations of several different antisense oligonucleotides, or control oligonucleotides, in the presence of 20 ug/ml LIPOFECTIN® for 24 hours. […] NIH 3T3 cells transfected with pSK1 MDR plasmid were grown to 90% confluence and treated with oligonucleotide (1 μm) for 24 hours in the presence of Lipofectin® in serum free medium. Total RNA was isolated and fractionated on agarose formaldehyde gels and blotted onto nitrocellulose membranes. These membranes were probed with a ^32P radiolabeled 1.0 kb MDR1 cDNA, and then stripped and reprobed with a ^32P radiolabeled beta-actin cDNA probe to confirm equal loading of RNA, allowing the levels of MDR1 transcripts to be normalized with regard to the beta-actin bands. Transcript levels were quantitated using a PHOSPHORIMAGER™ (Molecular Dynamics, Sunnyvale, Calif.); the values are expressed in arbitrary units (the beta-actin transcripts were essentially constant).
# MDR1 mRNA [4] = assay: as above; type: cell-based, human
# [5] = test system: multi-drug resistant 3T3 cells
# P-glycoprotein [6] = assay: P-glycoprotein expression by Western blotting in MDR 3T3 cells; type: cell-based, human; conditions: maximum only after 72 hours exposure
# Procedure: Transfected MDR NIH 3T3 cells were grown and treated with oligonucleotides as described in Example (9)(B). In order to measure P-glycoprotein expression by Western blotting, cells were seeded in 60 mm dishes at 1.2×10^6 per dish and incubated for 24 hours in serum containing medium. The cells were treated with the oligomers for various times in serum free medium as described above. Cells were then extracted in lysis buffer (20 mM Tris, pH 7.5, 2 mM EDTA, 500 mM EGTA, 2 mM PMSF, 1 mM DTT, aprotonin (10 ug/ml), 0.5% Triton-X) and sonicated briefly. The lysate was spun in a microfuge tube for 20 minutes at 4° C. and the resulting supernatant was checked for protein content. Equal amounts of protein (usually 20 ug) were mixed with SDS sample buffer and boiled. Protein samples were separated by 8% SDS PAGE and the resolved proteins were electrophoretically transferred onto polyvinyllidene fluoride membranes (Millipore, Bedford, Mass.). The membranes were blocked (with 3% BSA, 2% non fat dry milk in PBS) and then treated with 2 ug/ml C219 anti-P-glycoprotein antibody (Signet, Dedham, Mass.). After washing three times with 0.1% Tween 20, the membranes were incubated with rabbit anti-mouse antibody (Cappel, Durham, N.C.). Immunoreactive proteins were visualized either by ECL (Enhanced Chemiluminescence, Amersham, Arlington Heights, Ill.) or with ^125I secondary antibodies.
# [7] = test system: RNA complementary strand, Oligomer 41; assay: Melting analysis (Tm) of 2′-O-pentylamino linker strand against RNA complementary strand; type: binding
# Procedure: (§1) The test oligonucleotides (either the phosphodiester, phosphorothioate, cholic acid conjugated phosphodiester, cholic acid conjugated phosphorothioate or 5′-aminolink intermediate phosphodiester or phosphorothioate oligonucleotides of the invention or otherwise) and either the complementary DNA or RNA oligonucleotides were incubated at a standard concentration of 4 μM for each oligonucleotide in buffer (100 mM NaCl, 10 mM Na-phosphate, pH 7.0, 0.1 mM EDTA). Samples were heated to 90 degrees C. and the initial absorbance taken using a Guilford Response II spectro-photometer (Corning, Inc., Corning, N.Y.). Samples were then slowly cooled to 15° C. and then the change in absorbance at 260 nm was monitored during the heat denaturation procedure. The temperature was elevated 1 degree/absorbance reading and the denaturation profile analyzed by taking the 1st derivative of the melting curve. Data was also analyzed using a two-state linear regression analysis to determine the Tm's. The results of these tests are shown in Table 3 as are the HPLC retention times of certain of the test compounds.
# (§2) Melting analysis was conducted as per the method of Procedure B(1)(b).
# [8] = test system: DNA complementary strand, Oligomer 40; assay: Melting analysis (Tm) of 2′-O-pentylamino linker strand against DNA complementary strand; type: binding
# Procedure: as §1, §2
# mouse ICAM-1 mRNA = assay: ICAM-1 mRNA levels in LPS-treated mice (Northern analysis); type: in vivo
# Procedure: (§3) Mice were treated with oligonucleotides and examined as follows. […] Then, to induce ICAM-1 expression, bacterial lipopolysaccharide (LPS) was injected into the mice. After 2 hours, the mice were sacrificed, and particular organs, or specific portion thereof, were removed for further study. RNA was prepared from isolated, homogenized tissues essentially according to the guanidinium/CsCl purification method of Chirgwin et al. (Biochemistry, […], 18, 5294), electrophoresed and transferred to nylon membranes for hybridization studies (Northern analysis) according to methods well known in the art. In order to detect mouse ICAM-1 mRNA, a radiolabelled probe was prepared by random oligonucleotide-primed synthesis using a mouse ICAM-1 clone as a template. The blots were stripped and reprobed with a ^32P-labeled glyceraldehyde 3-phosphate dehydrogenase (G3PDH) probe (Clontech Laboratories, Inc., Palo Alto, Calif.) in order to confirm equal loading of RNA and to allow the levels of ICAM-1 transcripts to be normalized with regard to the G3PDH signals. Hybridizing bands were visualized by exposure to X-OMAT AR film and quantitated using a PHOSPHORIMAGER™ essentially according to the manufacturer's instructions (Molecular Dynamics, Sunnyvale, Calif.).
# PECAM-1 mRNA = PECAM-1 mRNA levels in murine liver (gene target specificity); type: in vivo, mouse; conditions: 10 mg/kg
# Procedure: as §3
# (§4) In similar experiments, the sequence (gene target) specificity of the 5′-cholesterol antisense oligonucleotide ISIS 8005 was examined.
# c-raf mRNA = c-raf mRNA levels in murine liver (gene target specificity); type: in vivo, mouse; conditions: 10 mg/kg
# Procedure: as §3, §4
# [9] = Oligomer 38 versus unmodified Oligomer 39
substance,measurement,setting,value
"5′-CTG-TCT-CCA-TCC-TCT-TCA-CT (CTGTCTCCATCCTCTTCACT; all phosphorothioate, sugars by position and methylation of C not given here) [Oligomer 42]",percent acetylation (chloramphenicol acetyl transferase),[1],29% and 30%
"CAC-CAC-CCC-CCT-CGC-TGG-TC (CACCACCCCCCTCGCTGGTC; chemistry not given here) [ISIS 10221, reference compound]",effect on P-glycoprotein surface expression,P-glycoprotein [2],less effective than an equivalent concentration of the cholesterol-conjugated analogs
same,MDR1 mRNA Level (arbitrary units),MDR1 mRNA [3]; 24 hours,"456,522 arbitrary units"
same,% Control (MDR1 mRNA),MDR1 mRNA [3]; 24 hours,96%
same,MDR1/beta-actin ratio,"MDR1 mRNA [4]; repeated experiments, laser densitometry of autoradiograms",1.01
same,non-specific effects at higher concentrations,[5],reduced beta-actin message levels and increased cytotoxicity
same,reduction of P-glycoprotein (Western assays),P-glycoprotein [6],did not reduce P-glycoprotein expression
CCA-TCC-CGA-CCT-CGC-GCT-CC (CCATCCCGACCTCGCGCTCC; chemistry not given here) [ISIS 5995],effect on P-glycoprotein surface expression,P-glycoprotein [2],less effective than an equivalent concentration of the cholesterol-conjugated analogs
same,reduction in MDR1 message levels,"MDR1 mRNA [3]; 1.0 μm, 20 ug/ml LIPOFECTIN, 24 hours",about 50%
same,time to normal levels of MDR1 mRNA after return to medium without oligonucleotide,MDR1 mRNA [3]; after 24 hours exposure,≤ 24 h
same,reduction in MDR1 message at maximal specific effect,"MDR1 mRNA [3]; approximately 1.0 μm, 24 hours, LIPOFECTIN (FIG. 1)",approximately 60%
same,MDR1 mRNA Level (arbitrary units),MDR1 mRNA [3]; 24 hours,"226,087 arbitrary units"
same,% Control (MDR1 mRNA),MDR1 mRNA [3]; 24 hours,48%
same,treatment time of maximum specific reduction of MDR1 mRNA,"MDR1 mRNA [4]; 1 μm, 24, 48 and 72 hours tested",24 h
same,lowest concentration with some reduction in message levels,"MDR1 mRNA [4]; dose response 50-1000 nM, 24 hours, LIPOFECTIN",100 nM
same,reduction of P-glycoprotein (Western assays),P-glycoprotein [6],at least 80%
"GGA*-CCG-GA*A*-GGT-A*CG-A*G (GGACCGGAAGGTACGAG; chemistry not fully specified) [Oligomer 38, A* = pentylamino functionality at 2′-position]",change in Tm (Δ38-39) RNA,[7]; [9],(1.1) degrees
same,Tm RNA,"[7]; against Oligomer 41, 4 μM each strand, 100 mM NaCl, 10 mM Phosphate, 0.1 mM EDTA, pH 7.0",58.0 degrees centigrade
same,change in Tm (Δ38-39) DNA,[8]; [9],(6.1) degrees
same,Tm DNA,"[8]; against Oligomer 40, 4 μM each strand, 100 mM NaCl, 10 mM Phosphate, 0.1 mM EDTA, pH 7.0",54.5 degrees centigrade
U*GC-ATC-CCC-CAG-GCC-ACC-AT [ISIS 8005],reduction of hepatic ICAM-1 mRNA relative to LPS without oligonucleotide,"mouse ICAM-1 mRNA; liver, 30 mg/kg i.v. 24 and 2 hours prior to LPS",about 50%
same,reversal of LPS-mediated induction of ICAM-1 mRNA in the lung,"mouse ICAM-1 mRNA; lung samples, 30 mg/kg",neither ISIS 3082 nor its 5′-cholesterol conjugate ISIS 8005 was able to reverse the LPS-mediated induction of ICAM-1 to any great degree
same,effect on PECAM-1 mRNA levels,PECAM-1 mRNA,no effect
same,ICAM-1 staining of liver sections,"ICAM-1 protein; LPS-induced livers, HRP-conjugated secondary antibodies",virtually indistinguishable
same,overall cellular structure of liver,"ICAM-1 protein; mouse, in vivo",no gross cellular defects
same,effect on c-raf mRNA levels,c-raf mRNA,no effect
